Reference: patent publication US8309581B2, “Benzimidazole derivatives” (Hoffmann-La Roche Inc., priority 2009, dated 2012)

Molecular target: T1, FXR ligand binding domain (Homo sapiens, UniProt Q96RI1)
T1 construct: made in house; host or cells: E. coli BL21 (pLysS)
T1 sequence (Q96RI1 193-472 isoform Q96RI1-2): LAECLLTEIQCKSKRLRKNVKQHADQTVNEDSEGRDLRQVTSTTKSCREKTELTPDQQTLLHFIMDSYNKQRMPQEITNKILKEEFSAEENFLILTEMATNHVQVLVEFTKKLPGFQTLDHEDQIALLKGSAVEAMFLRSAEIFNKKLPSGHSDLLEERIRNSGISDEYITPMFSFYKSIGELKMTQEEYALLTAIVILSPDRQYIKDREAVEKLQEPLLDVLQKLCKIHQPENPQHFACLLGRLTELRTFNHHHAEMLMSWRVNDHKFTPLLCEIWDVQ
Test: Radioligand Binding Assay (scintillation proximity radioligand displacement)
Details: GST-FXR LBD fusion protein on SPA beads, test compound 6×10^−9 M to 2.5×10^−5 M
Procedure: The following tests were carried out in order to determine the activity of the compounds of formula (I). Background information on the binding assay can be found in: Nichols J S et al. “Development of a scintillation proximity assay for peroxisome proliferator-activated receptor gamma ligand binding domain”, (1998) Anal. Biochem. 257: 112-119.
Bacterial and mammalian expression vectors were constructed to produce glutathione-s-transferase (GST) and Gal4 DNA binding domain (GAL) proteins fused to the ligand binding domain (LBD) of human FXR (aa 193-473). To accomplish this, the portions of the sequences encoding the FXR LBD were amplified by polymerase chain reaction (PCR) from a full-length clone by PCR and then subcloned into the plasmid vectors. The final clone was verified by DNA sequence analysis.
The induction, expression, and subsequent purification of GST-LBD fusion protein was performed in E. coli strain BL21 (pLysS) cells by standard methods (Current Protocols in Molecular Biology, Wiley Press, ed. Ausubel et al.).
Radioligand Binding Assay
Binding of test substances to the FXR ligand binding domain was assessed in a radioligand displacement assay. The assay was performed in a buffer consisting of 50 mM Hepes, pH 7.4, 10 mM NaCl, 5 mM MgCl2, 0.01% CHAPS. For each reaction well in a 96-well plate, 40 nM of GST-FXR LBD fusion protein was bound to […] glutathione ytrium silicate SPA beads (PharmaciaAmersham) in a final volume of […] by shaking. A radioligand (e.g., 20 nM of 2,N-dicyclohexyl-2-[2-(2,4 dimethoxy-phenyl)-benzoimidazol-1-yl]-acetamide) and test compounds were added, and scintillation proximity counting was performed. All binding assays were performed in 96-well plates and the amount of bound ligand was measured on a Packard TopCount using OptiPlates (Packard). Dose response curves were performed within a range of test compound concentrations from 6×10^−9 M to 2.5×10^−5 M and IC50 values were calculated.

Row | SMILES | IC50
1 | O=C(O)COc1ccc(COc2ncccc2-c2nc3cc(F)c(F)cc3n2CC2CCCCC2)cc1 [Example 5, {4-[3-(1-Cyclohexylmethyl-5,6-difluoro-1H-benzoimidazol-2-yl)-pyridin-2-yloxymethyl]-phenoxy}-acetic acid] | 12100 nM
2 | Fc1cc2nc(-c3ccc(Cl)cc3C#Cc3ccc(-c4nnn[nH]4)cc3)n(CC3CCCCC3)c2cc1F [Example 72, 2-{4-Chloro-2-[4-(1H-tetrazol-5-yl)-phenylethynyl]-phenyl}-1-cyclohexylmethyl-5,6-difluoro-1H-benzoimidazole] | 3600 nM
3 | O=C(O)COc1ccc(COc2cc(Cl)ccc2-c2nc3cc(F)c(F)cc3n2Cc2ccccc2)cc1 [Example 52, {4-[2-(1-Benzyl-5,6-difluoro-1H-benzoimidazol-2-yl)-5-chloro-phenoxymethyl]-phenoxy}-acetic acid] | 800 nM
4 | Fc1cc2nc(-c3cccnc3OCC3CC3)n(CC3CCCCC3)c2cc1F [Example 2, 1-Cyclohexylmethyl-2-(2-cyclopropylmethoxy-pyridin-3-yl)-5,6-difluoro-1H-benzoimidazole] | 2900 nM
5 | Fc1cc2nc(-c3ccc(Cl)cc3OCC3CCCC3)n(Cc3cccc(Cl)c3)c2cc1F [Example 54, 1-(3-Chloro-benzyl)-2-(4-chloro-2-cyclopentylmethoxy-phenyl)-5,6-difluoro-1H-benzoimidazole] | 1200 nM
6 | Fc1cc2nc(-c3cccnc3OCc3ccccc3Cl)n(Cc3cccc(Cl)c3)c2cc1F [Example 11, 1-(3-Chloro-benzyl)-2-[2-(2-chloro-benzyloxy)-pyridin-3-yl]-5,6-difluoro-1H-benzoimidazole] | 800 nM
7 | Fc1cc2nc(-c3ccc(Cl)cc3OCc3ccccc3Cl)n(Cc3ccccc3)c2cc1F [Example 48, 1-Benzyl-2-[4-chloro-2-(2-chloro-benzyloxy)-phenyl]-5,6-difluoro-1H-benzoimidazole] | 400 nM
8 | Fc1cc2nc(-c3ccc(Cl)cc3OCc3ccccc3Cl)n(Cc3cccc(Cl)c3)c2cc1F [Example 53, 1-(3-Chloro-benzyl)-2-[4-chloro-2-(2-chloro-benzyloxy)-phenyl]-5,6-difluoro-1H-benzoimidazole] | 1700 nM
9 | Fc1cc2nc(-c3ccc(Cl)cc3OCC3CCOCC3)n(Cc3ccc(-c4nnn[nH]4)cc3F)c2cc1F [Example 90, 2-[4-Chloro-2-(tetrahydro-pyran-4-ylmethoxy)-phenyl]-5,6-difluoro-1-[2-fluoro-4-(1H-tetrazol-5-yl)-benzyl]-1H-benzoimidazole] | 1600 nM
10 | Fc1cc2nc(-c3cccnc3OCC3CC3)n(Cc3cccc(Cl)c3)c2cc1F [Example 13, 1-(3-Chloro-benzyl)-2-(2-cyclopropylmethoxy-pyridin-3-yl)-5,6-difluoro-1H-benzoimidazole] | 3600 nM
11 | O=C(O)c1ccc(COc2ncccc2-c2nc3cc(F)c(F)cc3n2CC2CCCCC2)cc1 [Example 4, 4-[3-(1-Cyclohexylmethyl-5,6-difluoro-1H-benzoimidazol-2-yl)-pyridin-2-yloxymethyl]-benzoic acid] | 5800 nM
12 | O=C(O)CCCCCOc1cc(Cl)ccc1-c1nc2cc(F)c(F)cc2n1CC1CCCCC1 [Example 26, 6-[5-Chloro-2-(1-cyclohexylmethyl-5,6-difluoro-1H-benzoimidazol-2-yl)-phenoxy]-hexanoic acid] | 2100 nM
13 | O=C(O)C1CCC(COc2cc(Cl)ccc2-c2nc3cc(F)c(F)cc3n2CC2CCCCC2)CC1 (centres unmarked) [Example 29, 4-[5-Chloro-2-(1-cyclohexylmethyl-5,6-difluoro-1H-benzoimidazol-2-yl)-phenoxymethyl]-cyclohexane carboxylic acid] | 700 nM
14 | O=C(O)CCc1ccc(Cn2c(-c3cccnc3OCC3CCCC3)nc3cc(F)c(F)cc32)cc1 [Example 18, 3-{4-[2-(2-Cyclopentylmethoxy-pyridin-3-yl)-5,6-difluoro-benzoimidazol-1-ylmethyl]-phenyl}-propionic acid] | 30400 nM
15 | O=C(O)CCc1ccc(Cn2c(-c3cccnc3OCc3ccccc3Cl)nc3cc(F)c(F)cc32)cc1 [Example 17, 3-(4-{2-[2-(2-Chloro-benzyloxy)-pyridin-3-yl]-5,6-difluoro-benzoimidazol-1-ylmethyl}-phenyl)-propionic acid] | 10200 nM

Molecules with a lower IC50, results first:

Row | IC50 | SMILES
16 | 300 nM | Fc1cc2nc(-c3ccc(Cl)cc3OCC3CC3)n(CC3CCCCC3)c2cc1F [Example 21, 2-(4-Chloro-2-cyclopropylmethoxy-phenyl)-1-cyclohexylmethyl-5,6-difluoro-1H-benzoimidazole]
17 | 300 nM | O=C(O)CCc1ccc(Cn2c(-c3ccc(Cl)cc3OCC3CCCC3)nc3cc(F)c(F)cc32)cc1 [Example 59, 3-{4-[2-(4-Chloro-2-cyclopentylmethoxy-phenyl)-5,6-difluoro-benzoimidazol-1-ylmethyl]-phenyl}-propionic acid]
18 | 200 nM | Fc1cc2nc(-c3ccc(Cl)cc3OCc3ccc(-c4nnn[nH]4)cc3C(F)(F)F)n(CC3CCCCC3)c2cc1F [Example 38, 2-{4-Chloro-2-[4-(1H-tetrazol-5-yl)-2-trifluoromethyl-benzyloxy]-phenyl}-1-cyclohexylmethyl-5,6-difluoro-1H-benzoimidazole]
19 | 100 nM | Fc1cc2nc(-c3ccccc3CCc3ccc(-c4nnn[nH]4)cc3)n(CC3CCCCC3)c2cc1F [Example 76, 1-Cyclohexylmethyl-5,6-difluoro-2-(2-{2-[4-(1H-tetrazol-5-yl)-phenyl]-ethyl}-phenyl)-1H-benzoimidazole]
20 | 50 nM | Fc1cc2nc(-c3ccc(Cl)cc3OCc3ccc(-c4nnn[nH]4)cc3)n(CC3CCCCC3)c2cc1F [Example 31, 2-{4-Chloro-2-[4-(1H-tetrazol-5-yl)-benzyloxy]-phenyl}-1-cyclohexylmethyl-5,6-difluoro-1H-benzoimidazole]
21 | 40 nM | Fc1cc2nc(-c3ccc(Cl)cc3OCC3CCCC3)n(Cc3ccc(-c4nnn[nH]4)cc3)c2cc1F [Example 68, 2-(4-Chloro-2-cyclopentylmethoxy-phenyl)-5,6-difluoro-1-[4-(1H-tetrazol-5-yl)-benzyl]-1H-benzoimidazole]
22 | 30 nM | O=C(O)c1ccc(CCc2ccccc2-c2nc3cc(F)c(F)cc3n2CC2CCCCC2)cc1 [Example 77, 4-{2-[2-(1-Cyclohexylmethyl-5,6-difluoro-1H-benzoimidazol-2-yl)-phenyl]-ethyl}-benzoic acid]
23 | 30 nM | O=C(O)c1ccc(CCc2cc(Cl)ccc2-c2nc3ccccc3n2CC2CCCCC2)cc1 [Example 75, 4-{2-[5-Chloro-2-(1-cyclohexylmethyl-1H-benzoimidazol-2-yl)-phenyl]-ethyl}-benzoic acid]
24 | 30 nM | Fc1cc2nc(-c3ccccc3OCc3ccc(-c4nnn[nH]4)cc3F)n(CC3CCCCC3)c2cc1F [Example 34, 1-Cyclohexylmethyl-5,6-difluoro-2-{2-[2-fluoro-4-(1H-tetrazol-5-yl)-benzyloxy]-phenyl}-1H-benzoimidazole]
25 | 10 nM | Fc1cc(-c2nnn[nH]2)ccc1Cn1c(-c2ccc(Cl)cc2OCC2CCCC2)nc2ccccc21 [Example 95, 2-(4-Chloro-2-cyclopentylmethoxy-phenyl)-1-[2-fluoro-4-(1H-tetrazol-5-yl)-benzyl]-1H-benzoimidazole]
26 | 10 nM | CC1CCC(Cn2c(-c3ccccc3CCc3ccc(-c4nnn[nH]4)cc3)nc3ccccc32)CC1 (centres unmarked) [Example 82, 1-(4-Methyl-cyclohexylmethyl)-2-(2-{2-[4-(1H-tetrazol-5-yl)-phenyl]-ethyl}-phenyl)-1H-benzoimidazole]
27 | 10 nM | Fc1cc2nc(-c3ccc(Cl)cc3OCc3ccc(-c4nnn[nH]4)cc3F)n(CC3CCCCC3)c2cc1F [Example 32, 2-{4-Chloro-2-[2-fluoro-4-(1H-tetrazol-5-yl)-benzyloxy]-phenyl}-1-cyclohexylmethyl-5,6-difluoro-1H-benzoimidazole]
28 | 0.6 nM | O=C(Nc1cc(Cl)ccc1-c1nc2cc(F)c(F)cc2n1CC1CCCCC1)c1ccc(-c2nnn[nH]2)c(F)c1 [Example 85, N-[5-Chloro-2-(1-cyclohexylmethyl-5,6-difluoro-1H-benzoimidazol-2-yl)-phenyl]-3-fluoro-4-(1H-tetrazol-5-yl)-benzamide]
29 | 0.2 nM | O=C(Nc1cc(Cl)ccc1-c1nc2cc(F)c(F)cc2n1CC1CCCCC1)c1ccc(-c2nnn[nH]2)cc1F [Example 84, N-[5-Chloro-2-(1-cyclohexylmethyl-5,6-difluoro-1H-benzoimidazol-2-yl)-phenyl]-2-fluoro-4-(1H-tetrazol-5-yl)-benzamide]
